# Tests used:
# [1] = target: T1, human PDGFR-α(wt) (Homo sapiens, UniProt P16234); assay: Enzyme inhibitory activity, ADP-Glo kinase assay, PDGFR-α(wt); type: biochemical; details: read-out: PDGFR-α (IC50 class)
# T1 construct: purchased Signalchem P12-18G
# Procedure: (§1) In order to evaluate the inhibitory activity of the compounds synthesized according to the above examples on PDGFR-α(wt), PDGFR-β(wt), c-KIT(wt), and c-KIT(D816V) kinases, the following method was performed. The compounds of examples were reacted with purified human PDGFR-α(wt) (Signalchem #P12-18G) enzyme, human PDGFR-β(wt) (Signalchem #P13-11G) enzyme, human c-KIT(wt) (Signalchem #K06-11BG) enzyme, human c-KIT(D816V) (Signalchem #C06-12LG) enzyme, and the enzyme inhibitory abilities were evaluated by the following method.
# (§2) The reaction buffer was used as a composition of 40 mM Tris-HCl pH7.4, 20 mM MgCl2, 0.5 mg/ml BSA, 50 μM DTT, and the reactions of all the tests were carried out on the reaction buffer. The compound was diluted in 12 steps using a serial dilution method from a 10 mM DMSO stock, and the enzyme activity was measured at a final compound concentration of 10˜0.00005645 μM. During the test, the enzyme activity was confirmed using in vitro ADP-Glo™ kinase assay (Promega) after reacting with the proper concentration of human PDGFR-α(wt) enzyme, human PDGFR-β(wt), human c-KIT(wt) enzyme, and human c-KIT(D816V) enzyme with purified ATP and enzyme substrate at 25° C. for 1˜2 hours. At a ratio of 2:2:1, an enzyme-active reaction solution, an ADP-Glo reaction solution, and an enzyme-active detection solution were reacted to measure the inhibition of the enzyme's activity with luminoscence. Based on the […] of the enzyme activity of the solvent control that was not treated with the compound, the degree of enzyme activity inhibition was calculated according to the treatment concentration of each compound, and the concentration of each compound that inhibits 50% of enzyme activity was determined as IC50 (nM) value and the value was obtained by using GraphPad Prism 8.3.0 (GraphPad software Inc., San Diego) software. (A: IC50≤50 nM; B: 50 nM<IC50≤100 nM; C: 100 nM<IC50≤500 nM; D: IC50>500 nM).
# [2] = target: T2, human PDGFR-β(wt) (Homo sapiens, UniProt P09619); assay: Enzyme inhibitory activity, ADP-Glo kinase assay, PDGFR-β(wt); type: biochemical; details: read-out: PDGFR-β (IC50 class)
# T2 construct: purchased Signalchem P13-11G
# Procedure: as §1, §2
# [3] = tested on: Ba/F3-TEL-PDGFRα(WT); assay: Proliferation inhibitory activity on Ba/F3 cell (CellTiter-Glo, 72 hours), PDGFR-α; type: cell-based; details: Mus musculus, BaF3, read-out: Ba/F3 (nM) Tel-PDGFRα (GI50 class)
# Procedure: (§3) Ba/F3-TEL-PDGFRα(WT), Ba/F3-TEL-PDGFβ(WT), Ba/F3-c-KIT(D816V) (Kyinno, #KC-0138), c-KIT V560G/D816V, c-KIT D814Y were seeded at 3×10^3/100 μl/well in a clear bottom white 96-well plate. A culture solution containing compounds of 12 concentrations (0.00001-2 mM) serially diluted in 3 folds and the DMSO control group was added at 0.5 μl/well each to a final concentration of 0.00005-10 μM, and then incubated in a CO2 incubator at 37° C. for 72 hours. After 72 hours, the plate treated with the compound was taken out, CellTiter-Glo® Assay (Promega) solution was treated with 100 μl/well, followed by mixing well. After mixing well for about 10 minutes at room temperature, […] was measured using a microplate reader. The data were presented as percentages in proportion to treated cells based on the vehicle, GI50 (nM) values were calculated using GraphPad Prism 8.3.0 (GraphPad software Inc., San Diego).
# (§4) The inhibitory activities of Ba/F3 expressing PDGFR-α, PDGFR-β, c-KIT(D816V), c-KIT V560G/D816V, and c-KIT D814Y measured as described above were measured and shown in Table 7 below (A: GI50≤200 nM; B: 200 nM<GI50≤500 nM; C: GI50>500 nM).
# [4] = tested on: c-KIT V560G/D816V; assay: Proliferation inhibitory activity on Ba/F3 cell (CellTiter-Glo, 72 hours), c-KIT V560G/D816V; type: cell-based; details: Mus musculus, BaF3, c-KIT V560G/D816V cells, read-out: Cell (nM) c-KIT V560G/D816V (GI50 class)
# How it was run: (§5)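 In this assay, Ba/F3 transfectants are treated for 72 h at 37 °C with serially diluted compound (final 0.00005-10 μM), and viable cells are quantified by CellTiter-Glo. Results are expressed relative to vehicle to give GI50 in nM.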
# [5] = tested on: Ba/F3-TEL-PDGFβ(WT); assay: Proliferation inhibitory activity on Ba/F3 cell (CellTiter-Glo, 72 hours), PDGFR-β; type: cell-based; details: Mus musculus, BaF3, read-out: Ba/F3 (nM) Tel-PDGFRβ (GI50 class)
# Procedure: as §3, §4
# [6] = tested on: Ba/F3-c-KIT(D816V); assay: Proliferation inhibitory activity on Ba/F3 cell (CellTiter-Glo, 72 hours), c-KIT(D816V); type: cell-based; details: Mus musculus, BaF3, read-out: Ba/F3 (nM) c-KIT (D816V) (GI50 class)
# How it was run: as §5
# T2 sequence (P09619 33-1106): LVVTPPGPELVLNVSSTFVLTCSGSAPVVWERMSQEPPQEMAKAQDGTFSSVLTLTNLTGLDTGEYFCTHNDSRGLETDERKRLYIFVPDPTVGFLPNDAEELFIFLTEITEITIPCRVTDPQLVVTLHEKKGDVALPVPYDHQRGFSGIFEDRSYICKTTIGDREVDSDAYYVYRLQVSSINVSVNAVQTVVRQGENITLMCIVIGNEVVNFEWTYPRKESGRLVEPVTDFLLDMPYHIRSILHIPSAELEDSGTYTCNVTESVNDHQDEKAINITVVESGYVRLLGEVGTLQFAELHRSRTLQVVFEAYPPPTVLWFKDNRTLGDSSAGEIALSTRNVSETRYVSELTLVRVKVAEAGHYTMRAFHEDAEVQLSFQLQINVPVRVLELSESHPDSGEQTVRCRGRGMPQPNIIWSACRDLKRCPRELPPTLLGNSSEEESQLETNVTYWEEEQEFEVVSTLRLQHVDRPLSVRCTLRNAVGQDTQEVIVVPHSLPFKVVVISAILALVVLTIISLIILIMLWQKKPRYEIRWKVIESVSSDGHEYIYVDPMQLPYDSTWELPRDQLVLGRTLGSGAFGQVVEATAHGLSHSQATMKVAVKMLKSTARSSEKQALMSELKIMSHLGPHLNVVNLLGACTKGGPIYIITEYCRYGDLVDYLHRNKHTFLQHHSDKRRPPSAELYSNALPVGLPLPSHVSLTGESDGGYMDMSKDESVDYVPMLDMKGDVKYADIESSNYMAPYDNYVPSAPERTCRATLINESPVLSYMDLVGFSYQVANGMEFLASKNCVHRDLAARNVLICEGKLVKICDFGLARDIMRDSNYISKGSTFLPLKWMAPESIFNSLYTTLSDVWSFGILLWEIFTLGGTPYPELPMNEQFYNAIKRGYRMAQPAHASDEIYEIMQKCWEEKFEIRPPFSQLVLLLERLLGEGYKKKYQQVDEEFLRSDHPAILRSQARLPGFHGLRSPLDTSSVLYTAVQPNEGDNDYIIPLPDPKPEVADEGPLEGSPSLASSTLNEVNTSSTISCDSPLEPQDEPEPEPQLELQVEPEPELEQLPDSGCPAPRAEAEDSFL
# T1 sequence (P16234 24-1089): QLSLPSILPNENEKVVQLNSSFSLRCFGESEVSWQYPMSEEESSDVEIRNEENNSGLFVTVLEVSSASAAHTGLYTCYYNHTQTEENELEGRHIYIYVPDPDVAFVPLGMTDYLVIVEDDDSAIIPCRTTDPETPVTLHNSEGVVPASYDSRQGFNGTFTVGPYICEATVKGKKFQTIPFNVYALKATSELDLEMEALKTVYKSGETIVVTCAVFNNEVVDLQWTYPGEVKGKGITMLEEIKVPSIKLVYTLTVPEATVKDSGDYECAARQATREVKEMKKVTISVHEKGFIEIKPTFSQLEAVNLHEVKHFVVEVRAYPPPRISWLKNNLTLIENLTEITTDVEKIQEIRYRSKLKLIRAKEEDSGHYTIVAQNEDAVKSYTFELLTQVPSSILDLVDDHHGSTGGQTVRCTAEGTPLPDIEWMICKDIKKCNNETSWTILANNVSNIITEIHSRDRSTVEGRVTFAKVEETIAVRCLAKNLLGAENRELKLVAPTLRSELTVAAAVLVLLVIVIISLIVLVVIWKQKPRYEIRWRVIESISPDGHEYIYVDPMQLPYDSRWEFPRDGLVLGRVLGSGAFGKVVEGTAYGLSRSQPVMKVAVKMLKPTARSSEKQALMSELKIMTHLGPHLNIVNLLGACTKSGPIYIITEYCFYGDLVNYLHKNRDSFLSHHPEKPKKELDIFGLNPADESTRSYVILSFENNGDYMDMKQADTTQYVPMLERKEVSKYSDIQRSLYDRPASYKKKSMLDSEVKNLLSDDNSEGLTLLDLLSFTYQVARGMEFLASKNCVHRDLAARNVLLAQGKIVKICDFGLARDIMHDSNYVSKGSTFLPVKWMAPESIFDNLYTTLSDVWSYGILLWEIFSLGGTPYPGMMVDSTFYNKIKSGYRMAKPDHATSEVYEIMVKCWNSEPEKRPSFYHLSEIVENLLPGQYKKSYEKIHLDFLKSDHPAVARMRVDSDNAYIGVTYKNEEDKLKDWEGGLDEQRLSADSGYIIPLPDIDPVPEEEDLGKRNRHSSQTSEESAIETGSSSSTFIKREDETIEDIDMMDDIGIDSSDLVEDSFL
IC50 [1] [µM],IC50 [2] [µM],GI50 [3] [nM],GI50 [4] [nM],GI50 [5] [nM],GI50 [6] [nM],SMILES
≤ 0.05,≤ 0.05,≤ 200,≤ 200,≤ 200,,"CCN1CCC(COc2cc3ncnc(-c4ccc(NC(=O)C(C)(C)c5ccc(F)cc5)cc4)c3cc2OC)CC1 [Example 90, N-(4-(7-((1-ethylpiperidin-4-yl)methoxy)-6-methoxyquinazolin-4-yl)phenyl)-2-(4-fluorophenyl)-2-methylpropanamide]"
≤ 0.05,≤ 0.05,≤ 200,,≤ 200,≤ 200,"COc1cc2ncnc(-c3ccc(NC(=O)Cc4ccc(C(F)(F)F)cc4)cc3)c2cc1OCCCN1CC2(CCOCC2)C1 [Example 151, N-(4-(6-(3-(7-oxa-2-azaspiro[3.5]nonane-2-yl)propoxy)-7-methoxyquinazolin-4-yl)phenyl)-2-(4-(trifluoromethyl)phenyl)acetamide]"
,≤ 0.05,,≤ 200,≤ 200,≤ 200,"COc1cc2ncnc(-c3ccc(NC(=O)Cc4ccc(C(F)(F)F)cc4)cc3)c2cc1OCCCN1CCN2CCCC2C1 (centres unmarked) [Example 161, N-(4-(6-(3-(hexahydropyrrolo[1,2-a]pyrazin-2(1H)-yl)propoxy)-7-methoxyquinazolin-4-yl)phenyl)-2-(4-(trifluoromethyl)phenyl)acetamide]"
≤ 0.05,≤ 0.05,≤ 200,≤ 200,≤ 200,≤ 200,"COc1cc2c(-c3ccc(NC(=O)Cc4ccsc4)cc3)ncnc2cc1OCCCN1CCN(C)CC1 [Example 84, N-(4-(6-methoxy-7-(3-(4-methylpiperazin-1-yl)propoxy)quinazolin-4-yl)phenyl)-2-(thiophene-3-yl)acetamide]"
≤ 0.05,≤ 0.05,≤ 200,200 to 500,≤ 200,≤ 200,"COc1cc2c(-c3ccc(NC(=O)Cc4ccc5c(c4)CCO5)cc3)ncnc2cc1OCCCN1CCN(C)CC1 [Example 85, 2-(2,3-dihydrobenzofuran-5-yl)-N-(4-(6-methoxy-7-(3-(4-methylpiperazin-1-yl)propoxy)quinazolin-4-yl)phenyl)acetamide]"
,≤ 0.05,,≤ 200,≤ 200,,"CCN1CCCC(COc2cc3ncnc(-c4ccc(NC(=O)Cc5ccc(OC)nc5)cc4)c3cc2OC)C1 (centres unmarked) [Example 109, N-(4-(7-((1-ethylpiperidin-3-yl)methoxy)-6-methoxyquinazolin-4-yl)phenyl)-2-(6-methoxypyridin-3-yl)acetamide]"
,≤ 0.05,,≤ 200,≤ 200,,"COc1ccc(CC(=O)Nc2ccc(-c3ncnc4cc(OCC5CCN(C(C)C)CC5)c(OC)cc34)cc2)cn1 [Example 116, N-(4-(7-((1-isopropylpiperidin-4-yl)methoxy)-6-methoxyquinazolin-4-yl)phenyl)-2-(6-methoxypyridin-3-yl)acetamide]"
≤ 0.05,≤ 0.05,≤ 200,,≤ 200,≤ 200,"CCN1CCC(COc2cc3c(-c4ccc(NC(=O)Cc5ccc(C(F)(F)F)cc5)cc4)ncnc3cc2OC)CC1 [Example 147, N-(4-(6-((1-ethylpiperidin-4-yl)methoxy)-7-methoxyquinazolin-4-yl)phenyl)-2-(4-(trifluoromethyl)phenyl)acetamide]"
≤ 0.05,≤ 0.05,≤ 200,≤ 200,≤ 200,,"COCCN1CCC(COc2cc3ncnc(-c4ccc(NC(=O)C(C)(C)c5ccc(F)cc5)cc4)c3cc2OC)CC1 [Example 89, 2-(4-fluorophenyl)-N-(4-(6-methoxy-7-((1-(2-methoxyethyl)piperidin-4-yl)methoxy)quinazolin-4-yl)phenyl)-2-methylpropanamide]"
,≤ 0.05,,≤ 200,≤ 200,,"COc1ccc(CC(=O)Nc2ccc(-c3ncnc4cc(OCC5CCN(C)CC5)c(OC)cc34)cc2)cn1 [Example 100, N-(4-(6-methoxy-7-((1-methylpiperidin-4-yl)methoxy)quinazolin-4-yl)phenyl)-2-(6-methoxypyridin-3-yl)acetamide]"
,≤ 0.05,,200 to 500,≤ 200,≤ 200,"COc1cc2ncnc(-c3ccc(NC(=O)Cc4ccc(C(F)(F)F)cc4)cc3)c2cc1OCCCN1C[C@@H]2C[C@H]1CN2C [Example 158, N-(4-(7-methoxy-6-(3-((1S,4S)-5-methyl-2,5-diazabicyclo[2.2.1]heptane-2-yl)propoxy)quinazolin-4-yl)phenyl)-2-(4-(trifluoromethyl)phenyl)acetamide]"
≤ 0.05,≤ 0.05,≤ 200,≤ 200,≤ 200,≤ 200,"CCN1CCC(COc2cc3ncnc(-c4ccc(NC(=O)CCc5ccccc5)cc4)c3cc2OC)CC1 [Example 72, N-(4-(7-((1-ethylpiperidin-4-yl)methoxy)-6-methoxyquinazolin-4-yl)phenyl)-3-phenylpropanamide]"
≤ 0.05,≤ 0.05,≤ 200,> 500,≤ 200,≤ 200,"COCCOc1cc2ncnc(-c3ccc(NC(=O)C(C)(N)c4ccc(F)cc4)cc3)c2cc1OCCOC (centres unmarked) [Example 58, 2-amino-N-(4-(6,7-bis(2-methoxyethoxy)quinazolin-4-yl)phenyl)-2-(4-fluorophenyl)propanamide]"
≤ 0.05,0.1 to 0.5,≤ 200,,≤ 200,,"COc1cc2ncnc(-c3ccc(NC(=O)Cc4ccc(F)cc4)cc3)c2cc1O [Example 124, 2-(4-fluorophenyl)-N-(4-(6-hydroxy-7-methoxyquinazolin-4-yl)phenyl)acetamide]"
,≤ 0.05,,≤ 200,≤ 200,≤ 200,"COc1cc2c(-c3ccc(NC(=O)Cc4ccc(C(F)(F)F)cc4)cc3)ncnc2cc1OCCCN1CCN(C2CC2)CC1 [Example 142, N-(4-(7-(3-(4-cyclopropylpiperazin-1-yl)propoxy)-6-methoxyquinazolin-4-yl)phenyl)-2-(4-(trifluoromethyl)phenyl)acetamide]"
≤ 0.05,≤ 0.05,≤ 200,,≤ 200,> 500,CCN1CC2(C1)CN(CCCOc1cc3c(-c4ccc(NC(=O)Cc5ccc(C(F)(F)F)cc5)cc4)ncnc3cc1OC)C2 [Example 149]

SMILES,IC50 [1] [µM],IC50 [2] [µM],GI50 [3] [nM],GI50 [4] [nM],GI50 [5] [nM],GI50 [6] [nM]
"COc1cc2c(-c3ccc(NC(=O)C(C)(N)c4ccc(F)cc4)cc3)ncnc2cc1OCC(C)C (centres unmarked) [Example 10, 2-amino-2-(4-fluorophenyl)-N-(4-(7-isobutoxy-6-methoxyquinazolin-4-yl)phenyl)propanamide]",≤ 0.05,0.1 to 0.5,≤ 200,> 500,200 to 500,≤ 200

# Reference: patent US20260138959A1, “QUINAZOLINE DERIVATIVE COMPOUND AND USE THEREOF” (VORONOI INC., priority 2021, published 2026)
